Experimental data published in paper PMC4965013, “Open Source Drug Discovery with the Malaria Box Compound Collection for Neglected Diseases and Beyond” (PLoS Pathogens, 2016).
Values after ≈ are worked out from the molar mass of the structure shown. Read-outs that look alike come from different tables or passages of the source.

Assays:
[1] = system: P. falciparum 3D7 or K1; test: Asexual Blood Stage Imaging Assay (DAPI) V. Avery; format: cell-based; conditions: Plasmodium falciparum
[2] = system: P. falciparum FCR3; test: FCR3 SYBR Green I assay Horii; format: cell-based; conditions: Plasmodium falciparum, FCR3, 72 h; read-out: P. falciparum FCR3 asexual blood stage IC50 Horii
Experimental: Column T: Horii group (data presented first in this paper). IC50 against asexual blood stage P. falciparum FCR3. Methods: For measurement of anti-Plasmodium activities, P. falciparum FCR3 strain was cultured in the RPMI 1640 medium supplemented with 10% human type A serum from in-house volunteers at 37°C, 5% O2 and 5% CO2 (0.5% parasitemia and 2% hematocrit) for 72 h in the presence of the compounds (DMSO final concentration, 0.25%). The growth inhibition of P. falciparum was determined using a SYBR Green I assay. Lysis buffer (20 mM Tris (pH 7.5), 5 mM EDTA, 0.008% (w/v) saponin and 0.08% (v/v) Triton X-100) containing SYBR Green I was added to each well and incubated at room temperature and dark condition for 1-5 hours. After the incubation, amounts of parasite DNA were measured as fluorescence at 485 nm of excitation and 530 nm of emission. An unpublished antimalarial compound was used as positive control in the assay.

[3] = system: P. falciparum 3D7, HB3, Dd2, W2, K1, FCR3; test: Asexual EC50 image assay, six strains, Ayong; format: cell-based; conditions: Plasmodium falciparum
[4] = system: P. falciparum HB3; test: Stage-specificity / mitochondrial integrity image assay Ayong; format: cell-based; conditions: 10µM
[5] = system: P. falciparum NF54Pfs16 gametocytes stage I-III; conditions: ref [61]; read-out: gametocyte early stage (I-III) luciferase EC50; cited from earlier work
[6] = system: P. falciparum NF54Pfs16 gametocytes stage IV-V; conditions: cited from earlier work
[7] = system: P. falciparum NF54 GFP-Pfs16 gametocytes stage I-III; conditions: ref [64]; read-out: gametocyte early stage (I-III) GFP-MTR EC50; cited from earlier work
[8] = system: P. falciparum NF54 GFP-Pfs16 gametocytes stage IV-V; conditions: ref [64]; read-out: gametocyte late stage (IV-V) GFP-MTR EC50; cited from earlier work
[9] = system: Staphylococcus aureus; test: S. aureus agar spot / MIC Baker; conditions: read-out: Minimum Inhibitory Concentrations (MIC) S. aureus
[10] = system: Acinetobacter baumannii ATCC 19606; test: A. baumannii agar spot / MIC Baker; conditions: ATCC19606, read-out: Minimum Inhibitory Concentrations (MIC) A. baumanii
[11] = system: T. b. brucei Squib 427; test: T. b. brucei growth Maes; format: cell-based, Trypanosoma brucei brucei; conditions: non-toxic, positive in all T. brucei screens
[12] = system: P. falciparum Dd2; test: Malaria Sybr Green I Fluorescence assay Dd2 Horrocks; format: cell-based; conditions: Plasmodium falciparum, DD2, 48 h; read-out: P. falciparum Dd2 asexual blood stage EC50 Horrocks
Experimental: Column S: Horrocks group (data presented first in this paper). Asexual Dd2 inhibition of growth (IC50s): IC50 for the Dd2 clone of Plasmodium falciparum were determined using the Malaria Sybr Green I Fluorescence assay. Drug assays were initiated using a 2% trophozoite stage parasitaemia and 2% hematocrit and fluorescence measured after 48 h as fully described in Hasenkamp et al.[53]. Log dose-response curves were plotted in GraphPad Prism (v5.0). The controls for Dd2 using our 48hr Sybr Green I assay were (rounded to nearest nM): Chloroquine 209nM, Mefloquine 11nM, Quinine 246nM, Dihydroartemisinin 4nM, Artemether 10nM, Atovaquone 3nM.

[13] = system: P. falciparum 3D7; test: [3H]-hypoxanthine growth inhibition, modified HCO3- or O2; format: cell-based; conditions: for IC50: Plasmodium falciparum
[14] = system: P. falciparum 3D7 trophozoites; test: Metabolomic fingerprint profiling LC-MS; format: cell-based, Plasmodium falciparum; design: UDP-D-glucose / ADP-D-glucose: unit not given here
[15] = system: P. falciparum; test: EC50 listed in S2 Table Metabolomics (used to set the concentration tested); format: cell-based; conditions: Plasmodium falciparum; EC50 used for Factor_XEC50 in metabolomics; read-out: EC50_nM
[16] = system: A. ceylanicum L3 larvae; test: A. ceylanicum L3 larvae J. Keiser; format: cell-based, Ancylostoma ceylanicum; conditions: 200µM
[17] = system: T. muris L1 larvae; test: T. muris L1 larvae J. Keiser; format: cell-based, Trichuris muris; conditions: 100µM
[18] = read-out: P. falciparum 3D7 asexual blood stage EC50 (Image) V. Avery
[19] = read-out: P. falciparum K1 asexual blood stage EC50 (Image) V. Avery
[20] = metabolite level change after treatment

C[C@@H]1CC[C@H]2[C@@H](C)C(=O)O[C@@H]3O[C@@]4(C)CC[C@@H]1[C@]32OO4 [Artemisinin, reference compound]
EC50 [1, 18]: 1 nM | EC50 [1, 19]: 1 nM | IC50 [2]: 47 nM | EC50 ([3]; read-out: P. falciparum 3D7 asexual blood stage EC50 (Image) Ayong): 11.7 ± 1.4 nM | EC50 ([3]; read-out: P. falciparum Dd2 asexual blood stage EC50 (Image) Ayong): 5.3 ± 1.2 nM | EC50 ([3]; read-out: P. falciparum FCR3 asexual blood stage EC50 (Image) Ayong): 5 ± 0.4 nM | EC50 ([3]; read-out: P. falciparum HB3 asexual blood stage EC50 (Image) Ayong): 8.6 ± 1.2 nM | EC50 ([3]; read-out: P. falciparum K1 asexual blood stage EC50 (Image) Ayong): 3.5 ± 0.4 nM | EC50 ([3]; read-out: P. falciparum W2 asexual blood stage EC50 (Image) Ayong): 5.7 ± 0.5 nM | Effects on asexual life cycle progression (treatment at ER, LR, T, S; merozoites; mitochondrial integrity) [4]: LR-X-S-X-o-o | EC50 [5]: 13 nM | EC50 ([6]; ref [62], read-out: gametocyte late stage (IV-V) luciferase EC50): 26 nM | EC50 [7]: 1 nM | EC50 [8]: 5 nM

O=C(Nc1ccc(F)c(Cl)c1)Nc1ccc(Cl)c(Cl)c1 [MMV665953]
MIC [9]: 1.25 to 5 µM (≈ 0.417 to 1.67 µg/mL) | MIC [10]: 1.25 to 5 µM (≈ 0.417 to 1.67 µg/mL)

CN(C)CCCNCc1ccc(-c2ccc(F)c(Cl)c2)o1 [MMV020505]
Selectivity Index T. brucei screens [11]: > 10

CCN(CC)CCCC(C)Nc1ccnc2cc(Cl)ccc12 (stereo not shown) [Chloroquine, reference compound]
EC50 [1, 18]: 3 nM | EC50 [1, 19]: 199 nM | EC50 [12]: 209 nM | IC50 [2]: 125 nM | Effects on asexual life cycle progression (treatment at ER, LR, T, S; merozoites; mitochondrial integrity) [4]: LR-X-S-o-o-o | fold change (IC50normal/ IC50hypoxia) [13]: 1.6 | fold change (IC50reduced/IC50normal) [13]: 2.3 | IC50 ([13]; 3D7, read-out: P. falciparum 3D7 IC50 1% O2, 1% O2 hypoxia): 7 nM | IC50 ([13]; 3D7, read-out: P. falciparum 3D7 IC50 5% O2): 11 nM | IC50 ([13]; 3D7, read-out: P. falciparum 3D7 IC50 HCO3- (2g/L), standard media): 16 nM | IC50 ([13]; 3D7, HCO3- reduced media, read-out: P. falciparum 3D7 IC50 HCO3- reduced): 36 nM | EC50 [5]: 77 nM | IC50 ([6]; ref [69], read-out: late stage gametocyte luciferase, no inhibition up to): > 10000 nM

CCN1CCN(Cc2ccc(NC(=O)c3cc4ccc5cccnc5c4[nH]3)cc2)CC1 [MMV020548]
Selectivity Index T. brucei screens [11]: > 10 | Acetyllysine ([14]; S2 Table Metabolomics, metabolite Acetyllysine): -1.074 | N-acetyl-L-ornithine ([14]; S2 Table Metabolomics, metabolite N-acetyl-L-ornithine): -0.7002 | N-carbamoyl-L-aspartate ([14]; S2 Table Metabolomics, metabolite N-carbamoyl-L-aspartate): 0.01627 | NADPH ([14]; S2 Table Metabolomics, metabolite NADPH): -0.7588 | dAMP ([14]; S2 Table Metabolomics, metabolite dAMP): 0.7039 | dCMP ([14]; S2 Table Metabolomics, metabolite dCMP): 0.2246 | dTDP ([14]; S2 Table Metabolomics, metabolite dTDP): 0.1022 | dTMP ([14]; S2 Table Metabolomics, metabolite dTMP): 0.01221 | dTTP ([14]; S2 Table Metabolomics, metabolite dTTP): -0.4268 | dihydroorotate ([14]; S2 Table Metabolomics, metabolite dihydroorotate): 0.1148 | orotate ([14]; S2 Table Metabolomics, metabolite orotate): 0.2392 | DLH ([14]; S2 Table Metabolomics, peptide DLH): -1.531 | DLS/SDL/SID ([14]; S2 Table Metabolomics, peptide DLS/SDL/SID): -1.1 | PD ([14]; S2 Table Metabolomics, peptide PD): -1.147 | PEE ([14]; S2 Table Metabolomics, peptide PEE): -0.7652 | PVNF ([14]; S2 Table Metabolomics, peptide PVNF): -1.327 | 3-phosphoglycerate ([14]; metabolite 3-phosphoglycerate, S2 Table Metabolomics): -0.1406 | ADP-D-glucose ([14]; metabolite ADP-D-glucose, S2 Table Metabolomics): 0.03533 | ATP ([14]; metabolite ATP, S2 Table Metabolomics): -0.3247 | CDP ([14]; metabolite CDP, S2 Table Metabolomics, change in metabolite level after compound treatment): -0.06734 | D-sedoheptulose-1/7-phosphate ([14]; metabolite D-sedoheptulose-1/7-phosphate, S2 Table Metabolomics, change in metabolite level after compound treatment): -0.2201 | FAD ([14]; metabolite FAD, S2 Table Metabolomics): -0.1695 | GMP ([14]; metabolite GMP, S2 Table Metabolomics, change in metabolite level after compound treatment): 0.03987 | NAD+ ([14]; metabolite NAD+, S2 Table Metabolomics): -0.004207 | NADP+ ([14]; metabolite NADP+, S2 Table Metabolomics): -0.07599 | Octoluse Bisphosphate ([14]; metabolite Octoluse Bisphosphate, S2 Table Metabolomics, change in metabolite level after compound treatment): -0.5083 | Pyroglutamic acid ([14]; metabolite Pyroglutamic acid, S2 Table Metabolomics): 0.8773 | UDP-D-glucose ([14]; metabolite UDP-D-glucose, S2 Table Metabolomics): -0.04378 | UDP-D-glucuronate ([14]; metabolite UDP-D-glucuronate, S2 Table Metabolomics): -0.2395 | UDP-N-acetyl-glucosamine ([14]; metabolite UDP-N-acetyl-glucosamine, S2 Table Metabolomics): -0.0477 | UDP ([14]; metabolite UDP, S2 Table Metabolomics, change in metabolite level after compound treatment): -0.1277 | UMP ([14]; metabolite UMP, S2 Table Metabolomics, change in metabolite level after compound treatment): -0.04731 | UTP ([14]; metabolite UTP, S2 Table Metabolomics, change in metabolite level after compound treatment): -0.476 | a-ketoglutarate ([14]; metabolite a-ketoglutarate, S2 Table Metabolomics): 0.2925 | citrate/isocitrate ([14]; metabolite citrate/isocitrate, S2 Table Metabolomics, change in metabolite level after compound treatment): 0.7028 | cytidine ([14]; metabolite cytidine, S2 Table Metabolomics): 0.2393 | dATP ([14]; metabolite dATP, S2 Table Metabolomics): -0.2064 | dGMP/AMP ([14]; metabolite dGMP/AMP, S2 Table Metabolomics, change in metabolite level after compound treatment): 0.2962 | fumarate ([14]; metabolite fumarate, S2 Table Metabolomics, change in metabolite level after compound treatment): -0.1605 | glucose-1/6-phosphate ([14]; metabolite glucose-1/6-phosphate, S2 Table Metabolomics, change in metabolite level after compound treatment): -0.1021 | glycerate ([14]; metabolite glycerate, S2 Table Metabolomics, change in metabolite level after compound treatment): 0.2926 | guanine ([14]; metabolite guanine, S2 Table Metabolomics, change in metabolite level after compound treatment): 0.4901 | guanosine ([14]; metabolite guanosine, S2 Table Metabolomics, change in metabolite level after compound treatment): 0.1417 | hypoxanthine ([14]; metabolite hypoxanthine, S2 Table Metabolomics): 0.9061 | indole ([14]; metabolite indole, S2 Table Metabolomics): 0.3876 | inosine ([14]; metabolite inosine, S2 Table Metabolomics, change in metabolite level after compound treatment): 0.524 | 2_3-Diphosphoglyceric acid [14, 20]: -0.4996 | 4-phosphopantothenate [14, 20]: 0.07924 | 6-phospho-D-gluconate [14, 20]: -0.3745 | FMN [14, 20]: -0.06134 | IMP [14, 20]: 0.03526 | Pyrophosphate [14, 20]: -0.5624 | Sedoheptoluse bisphosphate [14, 20]: -0.2788 | cyclic-AMP [14, 20]: -0.1988 | glutathione disulfide [14, 20]: -0.4809 | lactate [14, 20]: 0.3196 | myo-inositol [14, 20]: -0.02428 | nicotinate ([14]; metabolite nicotinate, S2 Table Metabolomics): 0.6741 | ornithine ([14]; metabolite ornithine, S2 Table Metabolomics): -0.3153 | phosphoenolpyruvate ([14]; metabolite phosphoenolpyruvate, S2 Table Metabolomics): 0.09829 | pyruvate ([14]; metabolite pyruvate, S2 Table Metabolomics, change in metabolite level after compound treatment): 0.858 | ribose-phosphate ([14]; metabolite ribose-phosphate, S2 Table Metabolomics): -0.1246 | sarcosine/alanine ([14]; metabolite sarcosine/alanine, S2 Table Metabolomics, change in metabolite level after compound treatment): 0.05828 | sn-glycerol-3-phosphate ([14]; metabolite sn-glycerol-3-phosphate, S2 Table Metabolomics): -0.07501 | succinate/methylmalonic acid ([14]; metabolite succinate/methylmalonic acid, S2 Table Metabolomics, change in metabolite level after compound treatment): -0.07231 | uridine ([14]; metabolite uridine, S2 Table Metabolomics, change in metabolite level after compound treatment): 0.7812 | xanthosine ([14]; metabolite xanthosine, S2 Table Metabolomics, change in metabolite level after compound treatment): 0.03293 | EC50 [15]: 361 nM

c1ccc([C@H]2CN3CCSC3=N2)cc1 [Levamisole, reference compound]
A. ceylanicum positive control effect [16]: caused death of all worms | T. muris positive control effect [17]: caused death of all worms

ivermectin [reference compound]
A. ceylanicum positive control effect [16]: caused death of all worms | T. muris positive control effect [17]: caused death of all worms
